Results reported in patent US20210251229A1, “PLANT REGULATOR COMPOSITIONS” (Suntton Company Limited, priority 2020, published 2021).

Assays:
Format in all cases: in vivo
[1] = test system: spring wheat (Scotia variety); test: Spring wheat (Scotia variety) field trial, Arnprior, Ontario: spray at late booting stage, yield; settings: EBR 0.05 ppm applied with Ethephon 0.18%
Method: A spring wheat (Scotia variety) trial is carried out in Arnprior, Ontario, Canada. Typically, Ethephon alone has been used to reduce lodging in wheat. However, it can lead to the loss of yield, especially when it is sprayed at late booting stage.

[2] = test system: table grape (Thomson green seedless variety); test: Table grape (Thomson green seedless variety) field trial, Mecca, Calif.: spray at fruit size 12 mm; settings: sprayed at fruit size 12 mm, GA3 4.0 ppm (EBR 0.1 ppm in the combination)
Method: A table grape (Thomson green seedless variety) trial is carried out in Mecca, Calif. Typically, GA3 alone has been used as growth stimulator on table grape at sizing (berry size 10-14 mm), but it can cause uneven ripening and size of berry. [table]

[3] = test system: table grape (Flame variety); test: Table grape (Flame variety) field trial, Coachella, Calif.: spray at fruit size 12 mm; settings: sprayed at fruit size 12 mm, GA3 2.00 ppm (EBR 0.05 ppm in the combination), 100 gal water per acre
From the text: A table grape (Flame variety) trial was set up in Coachella, Calif. Typically, GA3 alone has been used as a growth stimulator on table grape at sizing (berry size 10-14 mm), but it can cause uneven ripening and size of berry. [table]

Cherry (Bing variety) = Cherry (Bing variety) field trials, Lodi, Calif.: growth regulation effects, spray at straw color; settings: sprayed at straw color, GA3 4.0 ppm (EBR 0.1 ppm in the combination)
Method: Two Cherry (Bing variety) trials are conducted in Lodi, Calif. to compare growth regulation effects of Gibberellic acid (GA3) and Composition of GA3 and 24-epibrassinolide (EBR). Typically, GA3 alone is commonly used on cherry at straw color for the elongation of storage life, but the application of GA3 often causes uneven ripening. [table]

SMILES: CC(C)[C@@H](C)[C@@H](O)[C@H](O)[C@@H](C)[C@H]1CC[C@H]2[C@@H]3COC(=O)[C@H]4C[C@H](O)[C@H](O)C[C@]4(C)[C@H]3CC[C@]12C [EBR, 24-epibrassinolide]
- Effect of EBR on loss of yield caused by Ethephon [1]: save/reverse the loss of yield

SMILES: C=C1C[C@]23C[C@@]1(O)CC[C@H]2[C@@]12C=C[C@H](O)[C@@](C)(C(=O)O1)[C@H]2[C@@H]3C(=O)O [GA3, Gibberellic acid]
- Ripening / uniformity of color and size [2]: the uneven ripening
- Fruits picked ([2]; 100 gal water per acre): Picked 85% of fruits
- Fruits picked [3]: Picked 90% of fruits
- Number of picks needed [3]: four
- Ripening / uniformity of color and size (Cherry (Bing variety)): the uneven ripening
- Fruits picked (Cherry (Bing variety); 100 gal water per acre): Picked 85% of fruits
- Number of picks needed (Cherry (Bing variety); 100 gal water per acre): four
